The text below walks through data of paper PMC8159961, “Exploring protein hotspots by optimized fragment pharmacophores” (Nature Communications, 2021).

“And” between values parts separate entries of the source, which are not always exact repeats. Equal entries are not always repeated. Where two headings read alike, the source gives them in different places.

Assay [1] addresses T1, human thrombin (Homo sapiens, UniProt P00734).
T1 construct: human thrombin; purchased Sigma-Aldrich
Briefly: Protease inhibitory assay, chromogenic substrate S-2238. It counts as biochemical. The conditions noted are these: for vinit: replicate values; for Ki: Thrombin, one of two values averaged in Supplementary Data 1, read-out: Ki.

Assay [2] has as its target T2, bovine factor Xa (Bos taurus, UniProt P00743).
T2 construct: bovine factor Xa, Chromogenix, 2 nkat/mL; purchased Chromogenix
Briefly: Protease inhibitory assay, chromogenic substrate S-2222. It counts as biochemical. Conditions: cmpd conc 200 µM; for vinit: replicate values; for Ki: FactorXa, one of two values averaged in Supplementary Data 1, read-out: Ki.

Setting [3] is: Thrombin Ki determination, substrate 20 µM, cmpd conc 200 µM.
Where [4] appears, read: Thrombin Ki determination, substrate 40 µM, cmpd conc 200 µM.
Where [5] appears, read: Thrombin primary screening, substrate 40 µM, cmpd conc 500 µM.
Where [6] appears, read: FactorXa primary screening, substrate 100 µM.
Where [7] appears, read: FactorXa Ki determination, substrate 100 µM.
The mark [8] stands for this setting: FactorXa Ki determination, substrate 200 µM.

T2 sequence (P00743 234-492 limits assumed): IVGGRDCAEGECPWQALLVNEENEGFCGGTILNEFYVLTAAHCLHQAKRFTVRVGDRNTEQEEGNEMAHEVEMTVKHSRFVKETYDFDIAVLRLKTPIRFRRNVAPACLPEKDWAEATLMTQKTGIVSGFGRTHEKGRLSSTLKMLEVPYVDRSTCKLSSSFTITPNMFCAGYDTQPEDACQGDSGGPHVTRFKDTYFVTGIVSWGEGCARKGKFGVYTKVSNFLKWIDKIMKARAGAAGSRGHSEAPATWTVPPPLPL
T2 sequence (P00743 41-180 partner limits assumed): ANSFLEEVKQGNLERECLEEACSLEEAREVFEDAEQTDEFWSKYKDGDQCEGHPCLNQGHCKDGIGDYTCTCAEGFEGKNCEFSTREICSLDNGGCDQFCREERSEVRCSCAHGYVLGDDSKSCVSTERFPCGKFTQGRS

The term Ki denotes a measure of affinity in units of concentration, obtained from inhibition or displacement. In the case of `c1cnc2cccnc2c1` [SX-A2], the “V0 / Vi” value amounted to 1.14 in assay [1] (setting [3]), 1.07 in assay [1] (setting [4]), 1.13 in assay [1] (setting [5]) and 1.03 in assay [2] (setting [6]). Besides, the “vinit, avrg.” value is given as 23.193 in assay [1] (setting [3]) and 31.452 in assay [1] (setting [4]). Also, the vinit in assay [1] (setting [3]) was 23.633 and 22.973 and 22.97; in assay [1] (setting [4]) it was 33.054 and 31.27 and 30.03; in assay [1] (setting [5]), 26.327 and 25.6; in assay [2] (setting [6]), 17.164 and 16.836. The Ki in assay [1] (substrate 20 µM, cmpd conc 200 µM) came to 160 µM; in assay [1] (substrate 40 µM, cmpd conc 200 µM) it was 166 µM.

Take `c1cnc2ncccc2c1` [SX-A3]: in assay [1] (setting [5]), the “V0 / Vi” value stood at 1.00; the vinit is 28.545 and 30.364. In assay [2] (setting [6]), the “V0 / Vi” value is 0.96; the vinit is 18.873 and 17.673.

For the molecule `c1ccc2[nH]ccc2c1` [SX-A4], in assay [1] (setting [5]), the “V0 / Vi” value is reported as 0.97; the vinit is 31.418 and 30.036. In assay [2] (setting [6]), the “V0 / Vi” value was found to be 1.05; the vinit was 15.929 and 16.714.

In the case of `Nc1nnc2ccccn12` [SX-A5], the “V0 / Vi” value in assay [1] (setting [5]) was 0.99; in assay [2] (setting [6]) it was 0.96. The vinit in assay [1] (setting [5]) was 30.873 and 29.418; in assay [2] (setting [6]), 17.929.

On to `Cn1c(N)nc2ccccc21` [SX-A6], for which the “V0 / Vi” value in assay [1] (setting [5]) is recorded as 0.93; in assay [2] (setting [7]), 1.48; in assay [2] (setting [8]) it was 1.30; in assay [2] (setting [6]), 1.45. Further, the vinit in assay [1] (setting [5]) is 31.891 and 32.182; in assay [2] (setting [7]), 10.624 and 11.848 and 10.44; in assay [2] (setting [8]) it was 28.578 and 28.05 and 27.32; in assay [2] (setting [6]), 10.544 and 13.214. The “vinit, avrg.” value in assay [2] (setting [7]) is listed as 10.970. For the same molecule, the Ki in assay [2] (substrate 100 µM) worked out at 257 µM; in assay [2] (substrate 200 µM) it was 297 µM.

In the case of `Cc1nc(-c2ccccc2)cs1` [SX-A7], the entries for the “V0 / Vi” value in assay [1] (setting [5]) and in assay [2] (setting [6]) were 0.97 and 0.98, respectively. For the same molecule, the vinit in assay [1] (setting [5]) was 32.618 and 31.345; in assay [2] (setting [6]), 17.782 and 18.8.

For the molecule `Cc1cc(-c2ccccc2)n[nH]1` [SX-A8], the “V0 / Vi” value in assay [1] (setting [5]) is listed as 0.97; in assay [2] (setting [6]), 0.98. Moreover, the vinit in assay [1] (setting [5]) is 32.036 and 32.145; in assay [2] (setting [6]) it was 19.236 and 17.164.

As to `Brc1ccc(-c2ccon2)cc1` [SX-A9], in assay [1] (setting [5]), the “V0 / Vi” value stood at 0.98; the vinit was 30.873 and 32.327. In assay [2] (setting [6]), the “V0 / Vi” value is 0.98; the vinit was 19.055 and 17.6.

As to `COc1ccccc1N1CCNCC1` [SX-A10], in assay [1] (setting [5]), the “V0 / Vi” value was 0.96; the vinit was 33.236 and 32.218. Besides, in assay [2] (setting [6]), the “V0 / Vi” value came to 0.98; the vinit is 14.286 and 15.286.

As to `COc1ccccc1C1CCNCC1` [SX-A11], the “V0 / Vi” value in assay [1] (setting [5]) was determined as 0.93; in assay [2] (setting [6]) it was 0.86. Besides, the vinit was 35.636 and 31.927 in assay [1] (setting [5]); 16.916 and 16.512 in assay [2] (setting [6]).

For `Oc1ccccc1N1CCCCC1` [SX-A12], the “V0 / Vi” value in assay [1] (setting [5]) is reported as 0.93; in assay [2] (setting [7]), 1.21; in assay [2] (setting [8]), 1.14; in assay [2] (setting [6]), 1.24. Further, the vinit is 34.073 and 33.6 in assay [1] (setting [5]); 13.208 and 13.684 and 13.54 in assay [2] (setting [7]); 30.42 and 30.848 and 34.37 in assay [2] (setting [8]); 11.714 and 11.643 in assay [2] (setting [6]). Besides, the “vinit, avrg.” value in assay [2] (setting [7]) is on record as 13.477. The Ki was determined as 597 µM in assay [2] (substrate 100 µM) and 625 µM in assay [2] (substrate 200 µM).

Consider `CS(=O)(=O)c1ccc(N2CCNCC2)cc1` [SX-B1], for which the vinit in assay [1] (setting [5]) was 29.818 and 32; in assay [2] (setting [6]) it was 18 and 19.091.

As for `O=C1CNCCN1c1ccccc1` [SX-B2], the “V0 / Vi” value is recorded as 1.05 in assay [1] (setting [5]) and 1.00 in assay [2] (setting [6]). The vinit in assay [1] (setting [5]) was 28.909 and 27.2; in assay [2] (setting [6]) it was 17.273 and 17.782.

For `O=C1CCCc2occc21` [SX-B3], in assay [1] (setting [5]), the “V0 / Vi” value was 0.97; the vinit is 30.582 and 29.818. Moreover, in assay [2] (setting [6]), the “V0 / Vi” value is 1.01; the vinit was 17.709 and 16.909.
